From patent US12728181B2, “Solution blow spun polymer constructs, compositions and methods of fabrications and uses relating thereto” (University of Maryland, College Park, priority 2019, dated 2026)

Tests used:
[1] = system: small model bacterial inoculation; details: cited from earlier work
keratinocytes = details: cited from earlier work
fibroblasts = details: cited from earlier work
mouse = details: in vivo, ip
Description: To determine the potential immune response to the fast-degrading components of the PSTA, we employed an intraperitoneal space implantation mouse model used to evaluate fibrosis (Doloff, J. C. et al. (2017) Colony Stimulating Factor-1 Receptor Is a Central Component of the Foreign Body Response to Biomaterial Implants in Rodents and Non-Human Primates, Nat. Mater. 16(6):671).

| Compound | minimum inhibitory concentration (MIC) ([1]; inoculation of the same size) | minimum bactericidal concentration (MBC) ([1]; small model bacterial inoculation) | 24 hour cytotoxic limit (KCC) (keratinocytes) | 24 hour cytotoxic limit (FCC) (fibroblasts) | fibrotic adhesions to the fat pads (mouse) |
| --- | --- | --- | --- | --- | --- |
| [Ag+] [Ag^+] | about 5 μM | approximately 20 μM | 500 µM | approximately 50 μM | – |
| poly(lactide-co-caprolactone) [LMW PLCL] | – | – | – | – | no adhesions to the fat pad |
